Reference: ChEMBL document CHEMBL4480398, “1,2,4-Triazolo[1,5-a]pyrimidines in drug design” (Eur J Med Chem, 2019)
≈ marks a conversion by molar mass, not a printed value.

Tests used:
Format in all cases: functional
[1] = system: Mycobacterium tuberculosis; test: Antibacterial activity against multidrug-resistant Mycobacterium tuberculosis M22 after 9 days by inverted microscopic analysis; settings: M22, 216 h
[2] = system: Mycobacterium tuberculosis; test: Antibacterial activity against multidrug-resistant Mycobacterium tuberculosis M23 after 9 days by inverted microscopic analysis; settings: M23, 216 h
[3] = system: Mycobacterium tuberculosis; test: Antibacterial activity against multidrug-resistant Mycobacterium tuberculosis P887 after 9 days by inverted microscopic analysis; settings: P887, 216 h
[4] = system: Mycobacterium tuberculosis; test: Antibacterial activity against extensively drug resistant Mycobacterium tuberculosis X24 after 9 days by inverted microscopic analysis; settings: X24, 216 h
[5] = system: Mycobacterium tuberculosis; test: Antibacterial activity against extensively drug resistant Mycobacterium tuberculosis X59 after 9 days by inverted microscopic analysis; settings: X59, 216 h

Compound	MIC [1] [µM]	MIC [2] [µM]	MIC [3] [µM]	MIC [4] [µM]	MIC [5] [µM]
Cc1nc2nc(S(=O)(=O)Nc3c(Br)ccc4cccnc34)nn2c2c1CCC2	2 (≈ 0.919 µg/mL)	2 (≈ 0.919 µg/mL)	2 (≈ 0.919 µg/mL)	2 (≈ 0.919 µg/mL)	2 (≈ 0.919 µg/mL)
Cc1ccn2nc(S(=O)(=O)Nc3c(Br)ccc4cccnc34)nc2n1	0.5 (≈ 0.21 µg/mL)	0.5 (≈ 0.21 µg/mL)	0.5 (≈ 0.21 µg/mL)	0.5 (≈ 0.21 µg/mL)	0.5 (≈ 0.21 µg/mL)
